Test results from PubChem BioAssay AID192 (DTP/NCI, 2004).
Several values for one entry are separate records, joined by “and”; a condition that tells them apart may be missing. Equal entries are not always repeated. Toxic doses and inconclusive results are not listed. Rule for the calls: active = survival T/C of 150% or more; inactive = T/C below 125% in these data.

Tested on: BDF1 mice, B16 melanoma ip, median survival T/C
Experiment: NCI In Vivo Anticancer Drug Screen. Data for tumor model B16 Melanoma (intraperitoneal) in B6D2F1 (BDF1) mice
Details: endpoint: median survival time, higher = longer survival
How it was run: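 Values are ratios of treated (T) to vehicle-control (C) measurements of survival or tumor size in tumor-bearing mice.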

[1] = dose: 25.0 mg/kg/injection, schedule: Q01DX009 (ip), vehicle: saline with Tween-80
[2] = dose: 25.0 mg/kg/injection, schedule: Q04DX003 (ip), vehicle: saline with Tween-80
[3] = dose: 37.5 mg/kg/injection, schedule: Q04DX003 (ip), vehicle: saline with Tween-80
[4] = dose: 50.0 mg/kg/injection, schedule: Q01DX009 (ip), vehicle: saline with Tween-80
[5] = dose: 50.0 mg/kg/injection, schedule: Q04DX003 (ip), vehicle: saline with Tween-80
[6] = dose: 100.0 mg/kg/injection, schedule: Q04DX003 (ip), vehicle: saline with Tween-80
[7] = dose: 12.5 mg/kg/injection, schedule: Q01DX009 (ip), vehicle: saline
[8] = dose: 25.0 mg/kg/injection, schedule: Q01DX009 (ip), vehicle: saline
[9] = dose: 50.0 mg/kg/injection, schedule: Q01DX009 (ip), vehicle: saline
[10] = dose: 100.0 mg/kg/injection, schedule: Q01DX009 (ip), vehicle: Klucel (hydroxypropylcellulose) (HPC)
[11] = dose: 200.0 mg/kg/injection, schedule: Q01DX009 (ip), vehicle: Klucel (hydroxypropylcellulose) (HPC)

Measured: T/C

CCCC(=O)OCc1ccc(Cl)c(Cl)c1
inactive: dose: 16.5 mg/kg/injection, schedule: Q04DX003 (ip), vehicle: saline with Tween-80 91 % of control | [1] 93 % of control | [2] 102 % of control | [3] 102 % of control | [4] 97 % of control | [5] 118 % of control | dose: 100.0 mg/kg/injection, schedule: Q01DX009 (ip), vehicle: saline with Tween-80 100 % of control | [6] 123 % of control

NNc1ncnc2nc[nH]c12
inactive: [7] 108 % of control | [8] 120 % of control | [9] 100 % of control

CCC1NC(=O)C(NC(=O)c2ncccc2O)C(C)OC(=O)C(c2ccccc2)NC(=O)C2CC(=O)CCN2C(=O)C(Cc2ccccc2)N(C)C(=O)C2CCCN2C1=O (stereo unspecified) (tested in a mixture with another compound)
inactive: dose: 18.75 mg/kg/injection, schedule: Q01DX009 (ip), vehicle: Klucel (hydroxypropylcellulose) (HPC) 104 % of control | dose: 37.5 mg/kg/injection, schedule: Q01DX009 (ip), vehicle: Klucel (hydroxypropylcellulose) (HPC) 108 % of control | dose: 75.0 mg/kg/injection, schedule: Q01DX009 (ip), vehicle: Klucel (hydroxypropylcellulose) (HPC) 108 % of control

CC(=O)[O][Sn]([CH2]c1ccccc1)([CH2]c1ccccc1)[CH2]c1ccccc1
inactive: dose: 1.5 mg/kg/injection, schedule: Q01DX009 (ip), vehicle: other 101 % of control | dose: 3.0 mg/kg/injection, schedule: Q01DX009 (ip), vehicle: other 96 % of control | dose: 6.0 mg/kg/injection, schedule: Q01DX009 (ip), vehicle: other 103 % of control | dose: 6.25 mg/kg/injection, schedule: Q01DX009 (ip), vehicle: other 111 % of control

O=C(NP(=O)(N1CC1)N1CC1)c1cc(I)ccc1I
inactive: dose: 1.0 mg/kg/injection, schedule: Q02DX009 (ip), vehicle: saline with Tween-80 100 % of control | dose: 1.0 mg/kg/injection, schedule: Q02DX009 (ip), vehicle: saline 104 % of control | dose: 2.0 mg/kg/injection, schedule: Q02DX009 (ip), vehicle: saline with Tween-80 106 % of control | dose: 2.0 mg/kg/injection, schedule: Q02DX009 (ip), vehicle: saline 107 % of control | dose: 4.0 mg/kg/injection, schedule: Q02DX009 (ip), vehicle: saline with Tween-80 93 % of control | dose: 4.0 mg/kg/injection, schedule: Q02DX009 (ip), vehicle: saline 98 % of control | dose: 8.0 mg/kg/injection, schedule: Q02DX009 (ip), vehicle: saline with Tween-80 120 % of control | dose: 8.0 mg/kg/injection, schedule: Q02DX009 (ip), vehicle: saline 112 % of control | dose: 16.0 mg/kg/injection, schedule: Q02DX009 (ip), vehicle: saline 116 % of control | dose: 32.0 mg/kg/injection, schedule: Q02DX009 (ip), vehicle: saline 107 % of control | dose: 64.0 mg/kg/injection, schedule: Q02DX009 (ip), vehicle: saline with Tween-80 92 % of control | dose: 64.0 mg/kg/injection, schedule: Q02DX009 (ip), vehicle: saline 101 % of control

COc1ccc2c(=O)cc(-c3ccccc3)[nH]c2c1
inactive: [7] 114 % of control | [8] 117 % of control | [9] 120 % of control

CCOC(=O)c1ccc(N)cc1
inactive: dose: 37.5 mg/kg/injection, schedule: Q01DX009 (ip), vehicle: saline with Tween-80 121 % of control | [3] 102 % of control | dose: 75.0 mg/kg/injection, schedule: Q01DX009 (ip), vehicle: saline with Tween-80 112 % of control | dose: 75.0 mg/kg/injection, schedule: Q04DX003 (ip), vehicle: saline with Tween-80 91 % of control | dose: 150.0 mg/kg/injection, schedule: Q01DX009 (ip), vehicle: saline with Tween-80 107 % of control | dose: 150.0 mg/kg/injection, schedule: Q04DX003 (ip), vehicle: saline with Tween-80 93 % of control

CC1(C)N=C(N)N=C(N)N1c1cccc(CCCCc2ccc(Cl)c(S(=O)(=O)F)c2)c1
inactive: dose: 3.13 mg/kg/injection, schedule: Q01DX009 (ip), vehicle: Klucel (hydroxypropylcellulose) (HPC) 94 % of control | dose: 6.25 mg/kg/injection, schedule: Q01DX009 (ip), vehicle: Klucel (hydroxypropylcellulose) (HPC) 100 % of control | dose: 12.5 mg/kg/injection, schedule: Q01DX009 (ip), vehicle: Klucel (hydroxypropylcellulose) (HPC) 94 % of control

O=C(Nc1ccccc1C(F)(F)F)Nc1cccc2ccccc12
inactive: [10] 91 % of control | [11] 94 % of control

O=C(Nc1ccc(F)cc1)Nc1cccc2ccccc12
inactive: [10] 97 % of control | [11] 94 % of control

O=P1(NCCCl)OCCCN1CCCl (stereo unspecified)
active: dose: 100.0 mg/kg/injection, schedule: Q01DX009 (ip), vehicle: water 169 % of control
inactive: [7] 109 % of control | [8] 103 % of control and 111 % of control and 119 % of control | dose: 25.0 mg/kg/injection, schedule: Q01DX009 (ip), vehicle: water 104 % of control and 121 % of control | dose: 25.0 mg/kg/injection, schedule: Q02DX009 (ip), vehicle: saline 100 % of control and 107 % of control | dose: 25.0 mg/kg/injection, schedule: Q02DX009 (ip), vehicle: water 114 % of control | [9] 90 % of control and 111 % of control and 116 % of control | dose: 50.0 mg/kg/injection, schedule: Q02DX009 (ip), vehicle: water 124 % of control | dose: 200.0 mg/kg/injection, schedule: Q02DX009 (ip), vehicle: water 122 % of control

CC(=O)Nc1cc2c(cc1Br)-c1ccccc1C2O (stereo unspecified)
inactive: dose: 12.5 mg/kg/injection, schedule: Q01DX009 (ip), vehicle: saline with Tween-80 92 % of control | dose: 12.5 mg/kg/injection, schedule: Q04DX003 (ip), vehicle: saline with Tween-80 92 % of control | [1] 102 % of control | [2] 100 % of control | [4] 89 % of control | [5] 95 % of control | [6] 90 % of control

COc1cccc2c1C(=O)c1c(O)c3c(c(O)c1C2=O)CC(O)(C(C)=O)CC3OC1CC(N)C(O)C(C)O1 (stereo unspecified)
116 % of control and 267 % of control: dose: 23.4 mg/kg/injection, schedule: Q01DX009 (ip), vehicle: saline
122 % of control and 267 % of control: dose: 11.7 mg/kg/injection, schedule: Q01DX009 (ip), vehicle: saline
active: dose: 2.5 mg/kg/injection, schedule: Q01DX007 (ip), vehicle: water 154 % of control | dose: 2.5 mg/kg/injection, schedule: Q01DX009 (ip), vehicle: water 163 % of control | dose: 5.0 mg/kg/injection, schedule: Q01DX007 (ip), vehicle: water 154 % of control | dose: 5.0 mg/kg/injection, schedule: Q01DX009 (ip), vehicle: water 190 % of control | dose: 5.8 mg/kg/injection, schedule: Q01DX009 (ip), vehicle: saline 258 % of control | dose: 10.0 mg/kg/injection, schedule: Q01DX007 (ip), vehicle: water 163 % of control | dose: 10.0 mg/kg/injection, schedule: Q01DX009 (ip), vehicle: water 218 % of control | dose: 20.0 mg/kg/injection, schedule: Q01DX007 (ip), vehicle: water 339 % of control | dose: 20.0 mg/kg/injection, schedule: Q01DX009 (ip), vehicle: water 231 % of control | dose: 23.4 mg/kg/injection, schedule: Q04DX003 (ip), vehicle: saline 212 % of control | dose: 46.8 mg/kg/injection, schedule: Q04DX003 (ip), vehicle: saline 275 % of control | dose: 93.6 mg/kg/injection, schedule: Q04DX003 (ip), vehicle: saline 275 % of control

C=CC=O
inactive: dose: 0.45 mg/kg/injection, schedule: Q01DX009 (ip), vehicle: saline 95 % of control | dose: 0.9 mg/kg/injection, schedule: Q01DX009 (ip), vehicle: saline 88 % of control | dose: 1.8 mg/kg/injection, schedule: Q01DX009 (ip), vehicle: saline 90 % of control

O=C1NC(=O)c2ccccc21
inactive: dose: 200.0 mg/kg/injection, schedule: Q01DX009 (ip), vehicle: saline 97 % of control | dose: 400.0 mg/kg/injection, schedule: Q01DX009 (ip), vehicle: saline 95 % of control
